Laboratory results as given in patent US9676754B2, “Triazolone compounds and uses thereof” (Inception 2, Inc., priority 2012, dated 2017).

Molecular target: T1, Human PPARα (Homo sapiens, UniProt Q07869)
T1 construct: host or cells: proprietary non-human mammalian cells
T1 sequence (Q07869 1-468): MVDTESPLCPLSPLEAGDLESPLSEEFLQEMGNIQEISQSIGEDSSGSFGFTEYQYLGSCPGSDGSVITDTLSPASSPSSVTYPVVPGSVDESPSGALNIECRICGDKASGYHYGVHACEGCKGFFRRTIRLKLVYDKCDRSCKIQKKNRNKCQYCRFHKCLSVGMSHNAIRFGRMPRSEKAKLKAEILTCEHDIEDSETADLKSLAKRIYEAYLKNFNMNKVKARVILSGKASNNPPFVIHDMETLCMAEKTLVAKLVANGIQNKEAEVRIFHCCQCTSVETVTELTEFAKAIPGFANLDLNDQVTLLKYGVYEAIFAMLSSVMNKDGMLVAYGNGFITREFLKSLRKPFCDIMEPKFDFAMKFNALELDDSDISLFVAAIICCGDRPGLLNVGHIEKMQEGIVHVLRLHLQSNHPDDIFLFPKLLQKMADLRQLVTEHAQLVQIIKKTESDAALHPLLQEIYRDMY
Test: Human PPARα Reporter Assay (luciferase)
Format: cell-based
Conditions: antagonist activity, luciferase reporter cells, overnight incubation; read-out: Human PPARα Reporter Assay-Luciferase IC50
Procedure: Human PPARα Reporter Assay
The screening of test compounds for agonist or antagonist activities against human PPARα receptors was performed using a commercial kit, Human PPARα Reporter Assay System (Indigo Biosciences, Cat. #IB00111).
This nuclear receptor assay system utilizes proprietary non-human mammalian cells engineered to provide constitutive, high-level expression of Human PPARα. Because these cells incorporate a PPARα-responsive luciferase reporter gene, quantifying expressed luciferase activity provides a sensitive surrogate measure of PPARα activity in the treated cells. The primary application of this reporter assay system is in the screening of test samples to quantify any functional activity, either agonist or antagonist, that they may exert against human PPARα. […] Briefly, the reporter cells are dispensed into wells of the assay plate and then immediately dosed with test compounds. Following an overnight incubation, the treatment media are discarded and Luciferase Detection Reagent (LDR) is added. The intensity of light emission from the ensuing luciferase reaction provides a sensitive measure that is directly proportional to the relative level of PPARα activation in the reporter cells.

SMILES	IC50
CCn1c(CCCc2cccc(-c3ccc(NS(=O)(=O)c4ccccc4)cn3)c2)nn(Cc2ccc(C(C)(C)C)cc2)c1=O [Example 12, N-(6-(3-(3-(1-(4-(tert-Butyl)benzyl)-4-ethyl-5-oxo-4,5-dihydro-1H-1,2,4-triazol-3-yl)propyl)phenyl)pyridin-3-yl)benzenesulfonamide]	302 nM
CCCOc1ccc(-c2cccc(CCCc3nn(Cc4ccc(C(C)(C)C)cc4)c(=O)n3CC)c2)cc1C(=O)O [Example 19, 3′-(3-(1-(4-(tert-Butyl)benzyl)-4-ethyl-5-oxo-4,5-dihydro-1H-1,2,4-triazol-3-yl)propyl)-4-propoxy-[1,1′-biphenyl]-3-carboxylic acid]	119 nM
CCCOc1ccc(-c2cccc(CCCc3nn(Cc4ccc(C(C)(C)C)cc4)c(=O)n3CC)c2)cc1CC(=O)O [Example 11, 2-(3′-(3-(1-(4-(tert-Butyl)benzyl)-4-ethyl-5-oxo-4,5-dihydro-1H-1,2,4-triazol-3-yl)propyl)-4-propoxy-[1,1′-biphenyl]-3-yl)acetic acid]	48 nM
CCOc1ccc(-c2cccc(CCCc3nn(Cc4ccc(C(C)(C)C)cc4)c(=O)n3CC)c2)cc1C1(C(=O)O)CC1 [Example 5, 1-(3′-(3-(1-(4-(tert-Butyl)benzyl)-4-ethyl-5-oxo-4,5-dihydro-1H-1,2,4-triazol-3-yl)propyl)-4-ethoxy-[1,1′-biphenyl]-3-yl)cyclopropanecarboxylic acid]	137 nM
CCn1c(CCCc2cccc(-c3ccc(OC)c(CC(=O)O)c3)c2)nn(Cc2ccc(C(C)(C)C)cc2)c1=O [Example 13, 2-(3′-(3-(1-(4-(tert-Butyl)benzyl)-4-ethyl-5-oxo-4,5-dihydro-1H-1,2,4-triazol-3-yl)propyl)-4-methoxy-[1,1′-biphenyl]-3-yl)acetic acid]	197 nM
CCn1c(CCCc2cccc(-c3cccc(CC(=O)O)c3)c2)nn(Cc2ccc(C(C)(C)C)cc2)c1=O [Example 1, 2-(3′-(3-(1-(4-(tert-Butyl)benzyl)-4-ethyl-5-oxo-4,5-dihydro-1H-1,2,4-triazol-3-yl)propyl)-[1,1′-biphenyl]-3-yl)acetic acid]	346 nM
CCn1c(CCCc2cccc(-c3ccc(C4(C(=O)O)CC4)cc3)c2)nn(Cc2ccc(C(C)(C)C)cc2)c1=O [Example 8, 1-(3′-(3-(1-(4-(tert-Butyl)benzyl)-4-ethyl-5-oxo-4,5-dihydro-1H-1,2,4-triazol-3-yl)propyl)-[1,1′-biphenyl]-4-yl)cyclopropanecarboxylic acid]	487 nM

Continued, values first:

IC50	SMILES
140 nM	CCn1c(CCCc2cccc(-c3ccc(CC(=O)O)c(OC)c3)c2)nn(Cc2ccc(C(C)(C)C)cc2)c1=O [Example 28, (3′-(3-(1-(4-(tert-Butyl)benzyl)-4-ethyl-5-oxo-4,5-dihydro-1H-1,2,4-triazol-3-yl)propyl)-3-methoxy-[1,1′-biphenyl]-4-yl)acetic acid]
610 nM	CCn1c(CCCc2cccc(-c3ccc(OC)c(CCC(=O)O)c3)c2)nn(Cc2ccc(C(C)(C)C)cc2)c1=O [Example 21, 3-(3′-(3-(1-(4-(tert-Butyl)benzyl)-4-ethyl-5-oxo-4,5-dihydro-1H-1,2,4-triazol-3-yl)propyl)-4-methoxy-[1,1′-biphenyl]-3-yl)propanoic acid]
1240 nM	CCOc1ccc(-c2nccc(CCCc3nn(Cc4ccc(C(C)(C)C)cc4)c(=O)n3CC)n2)cc1CC(=O)O [Example 26, 2-(5-(4-(3-(1-(4-(tert-Butyl)benzyl)-4-ethyl-5-oxo-4,5-dihydro-1H-1,2,4-triazol-3-yl)propyl)pyrimidin-2-yl)-2-ethoxyphenyl)acetic acid]
659 nM	CCn1c(CCC(F)(F)c2cccc(-c3ccc(NS(=O)(=O)c4ccccc4)cn3)c2)nn(Cc2ccc(C(C)(C)C)cc2)c1=O [Example 23, N-(6-(3-(3-(1-(4-(tert-Butyl)benzyl)-4-ethyl-5-oxo-4,5-dihydro-1H-1,2,4-triazol-3-yl)-1,1-difluoropropyl)phenyl)pyridin-3-yl)benzenesulfonamide]
